# Reference: patent publication US7049321B2, “Methods and pharmaceutical compositions for treatment of central and peripheral nervous system disorders and compounds useful therefor” (Israel Institute for Biological Research, priority 2002, dated 2006)
# Legend:
# [1] = tested on: C57BL/10SnJ (B10) mice; test: Morris water maze in small hippocampus mice; type: in vivo; conditions: for Training, escape latency: 0.5 and 1 mg/kg i.p. (rivastigmine, nicotine 1 mg/kg); for Training, path length: AF150(S) both doses, AF267B the higher dose; for Reversal test, escape latency / Training, swimming speed / Transfer test, spatial bias: mouse, in vivo
# Description: C57BL/10SnJ (B10) mice were selected due to their small hippocampi and decreased number of hippocampal pyramidal neurons; the cell loss seemed to be associated with poor spatial learning.
# Each group of mice was randomly divided into 7 treatment groups (n=12-14/group). […] All tested compounds and saline were administered once a day for 4 days before starting the behavioral testing, and then for the duration of the 5-day experiment, 30 minutes before testing.
# Training: Each mouse was trained for four consecutive days, four trials (one block) per day, in which the platform position remained constant and was located in the center of the southeast quadrant of the pool. Within each block of four trials, each mouse started at each of the starting locations, but the sequence of locations was randomly selected. A trial consisted of placing a mouse by hand into the water facing the wall of the pool at one of four starting locations, north, south, east or west, around the pool's perimeter. Escape latency (the time to find the platform), path length (the distance traveled by the mouse) and speed (the swimming rate of the mouse) were recorded on each trial by the monitoring system.
# For each mouse, the path length, escape latency, and swimming speed of the four trials on each of the 4 training days were grouped into blocks (one block for each day). […] Specific comparisons were performed, using the simple main effects contrasts acalysis, which is specifically suited for testing significant interactions.
# Transfer test. During trial No. 17, on the fourth day, the platform was entirely removed from the pool (a probe trial). In this trial, the mouse was placed into the water for a limited period (30 s), and its spatial bias was measured by recording the relative distribution of escape latency and path length over the four quadrants of the pool.
# Reversal test. During trials 18–21, on the fifth day, the platform position was changed to the northwest quadrant, opposite to the training quadrant. Thus, during reversal learning, the platform location was moved relative to the configuration of objects within the room, but the pool occupied the same place within the room throughout the entire experiment. Testing of the rats and measures taken were the same as in training.
# For each mouse, the escape latency, path length and swimming speed of the reversal test (trials No. 18–21) were grouped into one block.
# [2] = in vivo; conditions: mouse
# Description: This calculation was based on the brain weight (2 gr) vs. total plasma volume (14 ml).
# [3] = tested on: cells transfected with M1 mAChR; test: Apoptosis (DAPI, TUNEL, FACS) after starvation, Aβ or H2O2; type: cell-based, rat; conditions: for Apoptosis after Aβ or H2O2 (DAPI): DAPI staining
# [4] = tested on: tau protein; test: tau-1 immunoreactivity in primary cell cultures (western blot); type: cell-based, rat; conditions: 1–100 μM, cortical and hippocampal cell cultures
# Description: Primary cell cultures were grown as described in EXAMPLE 38. Cell supernatants were removed and the cells were washed once in medium prior to the addition of cold phosphate buffre saline ph=7.4 (PBS) solution containing 0.2 mM EDTA. Cells were scraped using a rubber policeman, transferred to Eppendorf tubes, and centrifuged at 4° C. Cell pellets were resuspended in lysis buffer (EDTA 5 mM, Tris 50 mM, Triton 1%, NaCl 150 mM) containing protease inhibitors (5 units/ml apronitin, […] and 0.1 mM PMSF, Sigma) and subjected to centrifugation at 4° C. Supernatants were transferred into Eppendorf tubes and kept at −20° C. till analyzed. The extent of tau-1 immunoreactivity (an antibody that recognizes a non-phosphorylated tau at Ser^199) was determined by western blots.
# [5] = tested on: cells transfected with M1 mAChR; test: Apoptosis (DAPI, TUNEL, FACS) after starvation, Aβ or H2O2; type: cell-based, rat; conditions: for Apoptotic cell death induced by starvation: 24 hrs starvation; for H2O2-induced apoptosis: H2O2 25 and 50 μm; for Aβ-induced apoptosis: β-A25-35 or β-A1-42 (25 μM), M1 transfected cells; for Apoptotic population after β-amyloid (FACS): β-Amyloid 25–35 or 1–42
# Description: Several experiments were performed in serum-free medium.
# Cells were grown and treated on glass coverslips.
# Apoptotic cells were identified as the pre-G1 phase.
# [6] = tested on: rat primary hippocampal cell cultures; test: APPs secretion in rat primary hippocampal cell cultures; type: cell-based; conditions: 100 μm; culture not given
# [7] = biological target: T1, M1 mAChR (Homo sapiens, UniProt P11229); test: Arachidonic acid (AA) release, M1; type: cell-based
# T1 construct: expressed in transfected cells
# [8] = biological target: Human serum albumin (HSA) (Homo sapiens, UniProt P02768); test: Protein binding, human serum albumin; type: in vitro ADME; conditions: 10 μM
# Description: (§1) Protein binding studies were carried out in human plasma, α1-glycoprotein, human serum albumin (HSA), and Dulbecco's Phosphate Buffered Saline (PBS). AF292 was added to a final concentration of 10 μM. […] (μM) and in human […] (AGP), (see Table 1).
# [9] = Metabolic stability, dog liver microsomes; type: in vitro ADME; conditions: read-out: Metabolic Stability T1/2
# Description: (§2) The metabolic stability of AF292 was evaluated by monitoring its disappearance while incubated with rat, […], monkey, and human hepatic microsomes. Testosterone, and propranolol were run as assay controls.
# [10] = tested on: tau proteins; test: tau phosphorylation, AT8 immunoblot; type: cell-based; conditions: 100 μM; to the control level
# Description: Following the experimental design of Sadot et al., J. Neurochem. […] By linking an M1 agonist to an antioxidant moiety tau phophorylation may be decreased, providing a new therapeutic strategy in a variety of CNS disease states due to combined damage due to oxidative stress and tau hyperphosphorylation.
# [11] = tested on: AF64A-injected rats; test: Passive avoidance in AF64A-treated rats; conditions: for Retention latency: 72 h after training; for Minimal effective dose: p.o.
# [12] = Plasma levels of AF267B and AF292 in dogs after AF267B administration (toxicokinetic, LC-MS); type: in vivo, Beagle dogs; conditions: for AUC(0-t) / Cmax / Tmax / half-life / AUC(0-inf) / MRT / MRT at 13 weeks: beagle, plasma, po
# Description: Internal Standard (AF261): 2-Methyl-8-methyl-1-thia-4,8-diaza-spiro[4.5]decan-3-one; MW 200. The analytical plasma samples originate from the in-life part of this study.
# [13] = Metabolic stability, monkey liver microsomes; type: in vitro ADME; conditions: read-out: Metabolic Stability T1/2
# Description: as §2
# [14] = Protein binding, PBS; type: in vitro ADME; conditions: 10 μM
# Description: as §1
# [15] = tested on: aged rats; test: Morris water maze in aged rats; type: in vivo, Sprague-Dawley rats; conditions: for Reversal learning: AF267B 1 mg/kg, AF292 1 and 0.5 mg/kg, po
# Description: Old (22–24 months old) and young (three months old) Sprague-Dawley rats had been tested in the MWM.
# [16] = tested on: Human α-glycoprotein (AGP); test: Protein binding, human α-glycoprotein; type: in vitro ADME; conditions: 10 μM
# Description: as §1
# [17] = both sexes, dog, 6 mg/kg, read-out: plasma half life
# [18] = female, dog, 6 mg/kg, F (1x), AF267B 1.5, 3, 6 mg/kg p.o. single
# [19] = female, dog, 6 mg/kg, F(13w), AF267B 1.5, 3, 6 mg/kg p.o.
# [20] = male, dog, 6 mg/kg, M (1x), AF267B 1.5, 3, 6 mg/kg p.o. single
# [21] = male, dog, 6 mg/kg, M(13w), AF267B 1.5, 3, 6 mg/kg p.o.
# [22] = male, dog, read-out: Elimination half life, Mean T1/2
# T1 sequence (P11229 whole entry): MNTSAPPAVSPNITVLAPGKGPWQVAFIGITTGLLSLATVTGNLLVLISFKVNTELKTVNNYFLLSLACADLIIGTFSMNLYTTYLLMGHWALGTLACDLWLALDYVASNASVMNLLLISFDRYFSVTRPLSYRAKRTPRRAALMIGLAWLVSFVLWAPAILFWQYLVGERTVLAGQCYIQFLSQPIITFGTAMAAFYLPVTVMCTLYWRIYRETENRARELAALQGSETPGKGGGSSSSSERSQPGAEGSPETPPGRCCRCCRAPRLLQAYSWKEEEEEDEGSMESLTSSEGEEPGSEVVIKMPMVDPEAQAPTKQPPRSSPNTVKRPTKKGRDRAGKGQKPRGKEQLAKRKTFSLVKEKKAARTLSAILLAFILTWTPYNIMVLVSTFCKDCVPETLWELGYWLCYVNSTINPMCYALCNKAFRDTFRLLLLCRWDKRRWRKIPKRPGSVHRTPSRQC
# Human serum albumin (HSA), sequence (P02768 25-609): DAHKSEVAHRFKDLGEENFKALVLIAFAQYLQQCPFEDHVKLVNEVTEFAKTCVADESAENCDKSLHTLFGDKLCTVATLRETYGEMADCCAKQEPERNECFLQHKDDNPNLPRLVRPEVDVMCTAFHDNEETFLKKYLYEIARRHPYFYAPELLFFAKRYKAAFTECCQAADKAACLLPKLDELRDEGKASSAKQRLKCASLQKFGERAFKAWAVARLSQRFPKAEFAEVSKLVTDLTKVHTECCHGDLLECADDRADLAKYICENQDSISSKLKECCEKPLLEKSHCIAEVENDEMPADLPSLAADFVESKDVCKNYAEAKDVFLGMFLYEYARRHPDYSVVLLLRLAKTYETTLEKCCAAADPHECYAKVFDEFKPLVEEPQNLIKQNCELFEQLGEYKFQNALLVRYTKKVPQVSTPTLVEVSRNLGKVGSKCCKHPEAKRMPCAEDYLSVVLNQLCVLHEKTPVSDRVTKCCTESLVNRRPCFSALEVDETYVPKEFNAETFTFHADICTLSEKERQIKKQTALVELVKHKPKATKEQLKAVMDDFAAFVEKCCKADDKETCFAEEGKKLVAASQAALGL
structure (smiles),measurement,setting,value
"CC1=NCC2(CCN(C)CC2)S1 [AF150(S), 2,8-Dimethyl-1-thia-3,8-diaza-spiro[4.5]dec-2-ene]","Training, escape latency",[1],positively affected
same,"Training, path length",[1],positively affected
same,"Reversal test, escape latency",[1],improved the escape latency
same,"Training, swimming speed",[1],enhancing effect of AF150(S) was equal in both doses
same,"Transfer test, spatial bias",[1],complete spatial bias
same,Tmax,[2],0.0167 to 0.167 h
same,"Apoptosis, TUNEL","[3]; 100 μM, 25 μM β-amyloid 25–35",able to block the apoptosis
same,Apoptosis after Aβ or H2O2 (DAPI),[3],protect these cells from apoptosis
same,tau-1 immunoreactivity,[4],effective in elevating tau immunoreactivity
same,Apoptotic death during starvation (FACS),[5],protected cells from apoptotic death
same,Apoptotic cell death induced by starvation,[5],significantly protect
same,H2O2-induced apoptosis,[5],prevented H2O2-induced apoptosis
same,Aβ-induced apoptosis,[5],prevented
same,Apoptotic population after β-amyloid (FACS),[5],reduced the apoptotic population significantly
same,"APPs secretion, fold over control (agonists vs CCh)",[6],2.8 fold
"CC[C@@H]1SC2(CCN(C)CC2)NC1=O [AF267B, (S)-2-ethyl-8-methyl-1-thia-4,8-diaza-spiro[4.5]decan-3-one]","Training, escape latency",[1],positively affected
same,"Training, path length",[1],positively affected
same,"Reversal test, escape latency",[1],improved the escape latency
same,"Training, swimming speed",[1],enhanced the swimming speed in a dose dependent manner
same,"Transfer test, spatial bias",[1],complete spatial bias
same,MRT,[2],2.13 h
same,Tmax,[2],0.333 to 0.5 h
same,Apoptosis after Aβ or H2O2 (DAPI),[3],protect these cells from apoptosis
same,"AA release vs. CCh, M1 mAChR",[7],100%
same,Protein Binding,[8],HSA = 32%
same,half-life,[9],> 1.67 h
same,tau phosphorylation (AT8),[10],induce dephosphorylation of tau proteins
same,Retention latency,[11]; 0.03 mg/kg p.o.,105.7 ± 31.9 s
same,Retention latency,[11]; 0.1 mg/kg p.o.,440.7 ± 46.4 s
same,Minimal effective dose,[11],less than 0.1 mg/kg
same,tau-1 immunoreactivity,[4],effective in elevating tau immunoreactivity
same,AUC(0-t),"[12]; both sexes, dog",712 to 3950 ng·h/mL
same,Cmax,"[12]; both sexes, dog",162 to 1350 ng/mL
same,Tmax,"[12]; both sexes, dog",1.5 to 3 h
same,half-life,[12]; [17],1 to 2 h
same,AUC(0-inf),[12]; [18],985 to 3180 ng·h/mL
same,AUC(0-inf),[12]; [19],1030 to 4160 ng·h/mL
same,MRT,"[12]; female, dog, F (1x)",4.7 to 5.3 h
same,MRT at 13 weeks,"[12]; female, dog, F(13w)",3.6 to 5.2 h
same,half-life,"[12]; female, dog, read-out: Elimination half life, Mean T1/2",3.3 h
same,AUC(0-inf),[12]; [20],800 to 3690 ng·h/mL
same,AUC(0-inf),[12]; [21],1040 to 4470 ng·h/mL
same,MRT,"[12]; male, dog, M (1x)",3.8 to 5 h
same,MRT at 13 weeks,"[12]; male, dog, M(13w)",3 to 4.2 h
same,half-life,[12]; [22],2.1 h
same,Apoptotic death during starvation (FACS),[5],protected cells from apoptotic death
same,Apoptotic cell death induced by starvation,[5],significantly protect
same,H2O2-induced apoptosis,[5],prevented H2O2-induced apoptosis
same,Aβ-induced apoptosis,[5],prevented
same,Apoptotic population after β-amyloid (FACS),[5],reduced the apoptotic population significantly
same,half-life,[13],0.45 h
same,Protein Binding,[14],PBS = 0%
same,Learning,[15]; 1 mg/kg,tendency for improvement
same,Reversal learning,[15],improved significantly the reversal learning
same,Swimming ability,"[15]; rat, in vivo",no significant effect on the swimming ability
same,Protein Binding,[16],AGP = 5.7%
same,"APPs secretion, fold over control (agonists vs CCh)",[6],2.8 fold
"CC[C@@H]1SC2(CCNCC2)NC1=O [AF292, (S)-2-Ethyl-1-thia-4,8-diaza-spiro[4.5]decan-3-one]","AA release vs. CCh, M1 mAChR",[7],> 88%
same,Protein Binding,[8],Human serum albumin (HSA) = 22%
same,half-life,[9],> 1.67 h
same,tau phosphorylation (AT8),[10],induce dephosphorylation of tau proteins
same,Retention latency,[11]; 1mg/kg p.o.,447 ± 46.8 s
same,Minimal effective dose,[11],below 1 mg/kg
same,"Elimination half life, Mean T1/2",[12]; F,Mean T1/2 (F) = 10.6 +/− 7.6 h
same,AUC(0-t),"[12]; both sexes, dog",616 to 2450 ng·h/mL
same,Cmax,"[12]; both sexes, dog",136 to 555 ng/mL
same,Tmax,"[12]; both sexes, dog",3 h
same,half-life,[12]; [17],9 to 20 h
same,Cmax vs. the Cmax of AF267B,"[12]; dog, in vivo",50–90%
same,AUC(0-inf),[12]; [18],3900 to 4840 ng·h/mL
same,AUC(0-inf),[12]; [19],1870 to 12700 ng·h/mL
same,MRT,"[12]; female, dog, F (1x)",8.7 to 18.7 h
same,MRT at 13 weeks,"[12]; female, dog, F(13w)",5.1 to 33.7 h
same,half-life,"[12]; female, dog, females, read-out: T1/2 (converted)",10.6 h
same,AUC(0-inf),[12]; [20],1140 to 10900 ng·h/mL
same,AUC(0-inf),[12]; [21],1610 to 4170 ng·h/mL
same,MRT,"[12]; male, dog, M (1x)",5 to 27.3 h
same,MRT at 13 weeks,"[12]; male, dog, M(13w)",5 to 7.8 h
same,half-life,[12]; [22],6.3 h
same,half-life,[13],1.23 h
same,Protein Binding,[14],0% and PBS = 0%
same,Reversal learning,[15],did not reach significance
same,"Probe trial, memory","[15]; both doses (1 and 0.5 mg/kg, po)",tendency for partial spatial bias
same,Protein Binding,[16],0%
